Laboratory results from patent EP2141163A1, “Substituted thiazolidinones, their production and utilisation as medicine” (Bayer Schering Pharma Aktiengesellschaft, priority 2008, dated 2010).

Assays:
[1] = test system: DU145; assay: Proliferation assay (crystal violet staining), DU145; type: cell-based, human; settings: Homo sapiens, DU-145, comparison with prior art (Tabelle 4), read-out: Inhibition IC50 [M] (DU145)
Protocol: (§1) Kultivierte humane Tumorzellen (MCF7, […] menschliche Mammakarzinomazellen, bezogen von ATCC HTB22; NCI-H460, menschliche nicht kleinzellige Lungenkarzinomazellen, ATCC HTB-177; DU 145, hormonunabhängige menschliche Prostatakarzinomazellen, ATCC HTB-81; HeLa-MaTu, humane Cervixkarzinomazellen, bezogen von EPO-GmbH, Berlin,) werden in einer Dichte von 5000 (MCF7, DU145) bzw. 3000 (NCI-H460, HeLa-MaTu) Zellen/Messpunkt in einer 96-Loch Multititerplatte in 200 µl des entsprechenden Wachstumsmediums ausplattiert. Nach 24 Stunden werden die Zellen einer Platte (Nullpunkt-Platte) mit Kristallviolett gefärbt (s.u.), während das Medium der anderen Platten durch frisches Kulturmedium (200 µl), dem die Testsubstanzen in verschiedenen Konzentrationen (0 µM, sowie im Bereich 0,01 - 30 µM; die finale Konzentration des Lösungsmittels Dimethylsulfoxid beträgt 0,5%) zugesetzt sind, ersetzt. Die Zellen werden für 4 Tage in Anwesenheit der Testsubstanzen inkubiert. Die Zellproliferation wird durch Färbung der Zellen mit Kristallviolett bestimmt: Die Zellen werden durch Zugabe von 20 µl/Messpunkt einer 11%igen Glutaraldehyd-Lösung 15 min bei Raumtemperatur fixiert. Nach dreimaligem Waschen der fixierten Zellen mit Wasser werden die Platten bei Raumtemperatur getrocknet. Die Zellen werden durch Zugabe von 100 µl/Messpunkt einer 0,1%igen Kristallviolett-Lösung (pH durch Zugabe von Essigsäure auf pH3 eingestellt) gefärbt. Nach dreimaligem Waschen der gefärbten Zellen mit Wasser werden die Platten bei Raumtemperatur getrocknet. Der Farbstoff wird durch Zugabe von 100 µl/Messpunkt einer 10%igen Essigsäure-Lösung gelöst. Die Extinktion wird photometrisch bei einer Wellenlänge von 595 nm bestimmt. Die prozentuale Änderung des Zellwachstums wird durch Normalisierung der Messwerte auf die Extinktionwerte der Nullpunktplatte (=0%) und die Extinktion der unbehandelten (0 µM) Zellen (=100%) berechnet. IC50-Werte werden nach einer 4-Parameterkurvenanpassung mit Hilfe eines Firmeneigenen Computerprogramms berechnet.

[2] = test system: NCI-H460; assay: Proliferation assay (crystal violet staining), NCI-H460; type: cell-based, human; settings: Homo sapiens, comparison with prior art (Tabelle 4), read-out: Inhibition IC50 [M] (NCI-H460)
Protocol: as §1

[3] = molecular target: T1, PLK-1 (Homo sapiens, UniProt P53350); assay: PLK-1 enzyme assay at 10 mM ATP (indirect HTRF assay); type: biochemical; settings: comparison with prior art (Tabelle 3), read-out: Inhibition PLK-1 IC50 [M] (10 mM ATP)
T1 construct: Fusionsprotein bestehend aus GST und Plk (Kinase Domäne 33-345; MW 36 kDa, conc 0,8 µg/µl); GST; made in house; host or cells: Hi5 insect cells
Protocol: PLK Enzym-Assay (10 mM ATP)
Für den Kinaseassay wird aus Insektenzellen (Hi5) exprimiertes, durch Glutathion-Sepharose-Affinitätschromatographie und anschließender Gel-filtration (Suerdex 75) gereinigtes rekombinantes Fusionsprotein bestehend aus GST und Plk (Kinase Domäne 33-345; MW 36 kDa, conc 0,8 µg/µl) verwendet. Aliqots hiervon werden in flüssigem Stickstoff weggefroren und bei -80°C gelagert und nach dem Auftauen nur einmal verwendet.
Bei dem verwendeten Assay handelt es sich um einen indirekten HTRF-Assay, bei dem folgende Materialien und Verfahrensweisen zum Einsatz kamen. Als Substrat für die Kinasereaktion wird das biotinylierte Peptid Btn-Ahx-KKLNRTLSFAEPG-Amid x TFA, von Biosyntan, Probennr.: 6178.1 (C-Terminus in Amidform) verwendet. Hierbei handelt es sich um eine artifizielle Sequenz, die von keinem bekannten Protein abgeleitet wurde.
50 nl der in 100% Dimethylsulfoxid (DMSO) gelösten Testverbindungen (Endkonzentrationen : 0 µM und Konzentrationen im Bereich von 0,001 - 20 µM) werden mit 2 µl Enzym Arbeitslösung (0,039 ng/µl Plk-1 im Arbeitspuffer [25 mM MgCl2; 1mM DTT; 50 mM Hepes pH 7,0; 0,01% NP40; 1x Complete; 0,05% BSA] für 30 min vorinkubiert. Anschließend wird die Kinase-Reaktion durch Zugabe von 3 µl Substratlösung [16,7 mM Adenosintriphosphate (ATP) und 1,4 µM Substratpeptid (Biotin-Ttds- KKLNRTLSFAEPG -NH2)] in Arbeitspuffer gestartet, und nach 30 min durch Zugabe einer Abstopp-Lösung (100 mM EDTA, 100 mM Hepes pH 7,5, 800 mM Potassiumfluoride, 0,12% BSA, 0,4 µM SA-XLent (0,05 µM, von CIS bio international, Marcoule, Frankreich), Eu^3+ Cryptate-conjugated Rabbit anti-Mouse IgG (1,5 nM; ein mit Europiumkryptat markierter Anti-Maus-IgG-Antikörper von CIS bio international, Marcoule, Frankreich), 1 nM Anti-phospho-Serine Kinase (ein phospho-spezifischer Antikörper von Upstate Biotechnology, Dundee, Schottland), gestoppt, und bei 4°C über Nacht inkubiert. Danach wird die Menge des phosphorylierten Substratpeptids durch Messung des Resonanzenergietransfers vom Europium-markierten Antikörperkomplex zum Streptavidine-XLent bestimmt. Zu diesem Zweck wird die Fluoreszenzemission bei 620 nm und 665 nm nach Anregung bei 350 nm in einem HTRF-Messgerät, z. B. Rubystar (BMG Labtechnologies, Offenburg, Deutschland) oder Viewlux (Perkin-Elmer), bestimmt. Das Verhältnis der Emissionen bei 665 nm und bei 620 nm wird als Maß für die Menge des phosphorylierten Substratpeptids verwendet. Die Daten werden normalisiert (Enzymreaktion ohne Inhibitor = 0 % Inhibition, alle anderen Assaykomponenten, aber kein Enzym = 100 % Inhibition), und IC50-Werte werden durch einen 4 Parameter-Fit mit einer hauseigenen Software berechnet.

[4] = test system: MCF-7; assay: Proliferation assay (crystal violet staining), MCF-7; type: cell-based, human; settings: Homo sapiens, MCF7, comparison with prior art (Tabelle 4), read-out: Inhibition IC50 [M] (MCF-7)
Protocol: as §1

T1 sequence (P53350 33-345): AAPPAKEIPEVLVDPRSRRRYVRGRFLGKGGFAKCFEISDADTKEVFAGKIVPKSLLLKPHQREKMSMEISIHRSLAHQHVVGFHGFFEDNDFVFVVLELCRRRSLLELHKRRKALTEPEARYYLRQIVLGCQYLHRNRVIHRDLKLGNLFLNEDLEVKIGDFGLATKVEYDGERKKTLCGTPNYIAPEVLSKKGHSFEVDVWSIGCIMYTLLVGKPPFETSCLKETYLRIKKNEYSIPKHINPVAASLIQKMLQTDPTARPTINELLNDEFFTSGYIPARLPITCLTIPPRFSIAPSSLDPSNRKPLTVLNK

CCn1c(=C(C#N)C(=O)NCC(F)(F)F)sc(=CNc2cccc(CCN3CCCC3)c2)c1=O [Beispiel 30 aus PCT/EP2005/013418, reference compound]
IC50 [1]: 6e-07 M | IC50 [2]: 9e-07 M | IC50 [3]: 1.1e-07 M | IC50 [4]: 7e-07 M
